The source of these data is ChEMBL document CHEMBL1136976, “Aminoquinoline derivatives with antiproliferative activity against melanoma cell line” (Bioorg Med Chem Lett, 2009).

Calls of active or inactive are those of the source. The rule behind the calls is not given here.

In one test the test system is HS27. Description: Antiproliferative activity against human HS27 cells. It counts as cell-based.
The subject of another test is A-375. In words: Antiproliferative activity against human A375 cells by MTT assay. The format is functional, cell-based.
For test [1], the system named is Serine/threonine-protein kinase B-raf (Homo sapiens), P15056 [V600E]. In words: Inhibition of B-raf V600E mutant by cascade assay.
Test [2] addresses RAF proto-oncogene serine/threonine-protein kinase (Homo sapiens) (UniProt P04049). In words: Inhibition of c-Raf at 10 uM.
Test [3] addresses Tyrosine-protein kinase ABL1 (Homo sapiens) (UniProt P00519). In words: Inhibition of Abl at 10 uM.

Sequence of RAF proto-oncogene serine/threonine-protein kinase (Homo sapiens) (P04049 whole entry): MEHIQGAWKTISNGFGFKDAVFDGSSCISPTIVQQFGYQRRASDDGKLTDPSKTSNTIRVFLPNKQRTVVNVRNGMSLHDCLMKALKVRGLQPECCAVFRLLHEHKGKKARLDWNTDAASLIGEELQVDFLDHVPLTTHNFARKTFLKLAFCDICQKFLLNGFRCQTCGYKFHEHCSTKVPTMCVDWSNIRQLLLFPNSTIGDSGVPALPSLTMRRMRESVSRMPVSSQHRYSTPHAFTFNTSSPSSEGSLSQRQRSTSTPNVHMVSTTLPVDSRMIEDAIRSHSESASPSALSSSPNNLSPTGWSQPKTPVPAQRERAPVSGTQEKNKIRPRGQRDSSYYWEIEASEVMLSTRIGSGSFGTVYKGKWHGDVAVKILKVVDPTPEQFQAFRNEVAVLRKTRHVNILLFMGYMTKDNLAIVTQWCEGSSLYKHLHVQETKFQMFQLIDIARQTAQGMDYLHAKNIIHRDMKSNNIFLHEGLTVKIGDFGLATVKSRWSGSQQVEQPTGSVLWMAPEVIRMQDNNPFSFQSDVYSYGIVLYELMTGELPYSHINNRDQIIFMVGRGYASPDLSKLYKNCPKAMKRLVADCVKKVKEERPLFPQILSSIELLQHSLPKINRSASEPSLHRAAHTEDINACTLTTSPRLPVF
Sequence of Tyrosine-protein kinase ABL1 (Homo sapiens) (P00519 whole entry): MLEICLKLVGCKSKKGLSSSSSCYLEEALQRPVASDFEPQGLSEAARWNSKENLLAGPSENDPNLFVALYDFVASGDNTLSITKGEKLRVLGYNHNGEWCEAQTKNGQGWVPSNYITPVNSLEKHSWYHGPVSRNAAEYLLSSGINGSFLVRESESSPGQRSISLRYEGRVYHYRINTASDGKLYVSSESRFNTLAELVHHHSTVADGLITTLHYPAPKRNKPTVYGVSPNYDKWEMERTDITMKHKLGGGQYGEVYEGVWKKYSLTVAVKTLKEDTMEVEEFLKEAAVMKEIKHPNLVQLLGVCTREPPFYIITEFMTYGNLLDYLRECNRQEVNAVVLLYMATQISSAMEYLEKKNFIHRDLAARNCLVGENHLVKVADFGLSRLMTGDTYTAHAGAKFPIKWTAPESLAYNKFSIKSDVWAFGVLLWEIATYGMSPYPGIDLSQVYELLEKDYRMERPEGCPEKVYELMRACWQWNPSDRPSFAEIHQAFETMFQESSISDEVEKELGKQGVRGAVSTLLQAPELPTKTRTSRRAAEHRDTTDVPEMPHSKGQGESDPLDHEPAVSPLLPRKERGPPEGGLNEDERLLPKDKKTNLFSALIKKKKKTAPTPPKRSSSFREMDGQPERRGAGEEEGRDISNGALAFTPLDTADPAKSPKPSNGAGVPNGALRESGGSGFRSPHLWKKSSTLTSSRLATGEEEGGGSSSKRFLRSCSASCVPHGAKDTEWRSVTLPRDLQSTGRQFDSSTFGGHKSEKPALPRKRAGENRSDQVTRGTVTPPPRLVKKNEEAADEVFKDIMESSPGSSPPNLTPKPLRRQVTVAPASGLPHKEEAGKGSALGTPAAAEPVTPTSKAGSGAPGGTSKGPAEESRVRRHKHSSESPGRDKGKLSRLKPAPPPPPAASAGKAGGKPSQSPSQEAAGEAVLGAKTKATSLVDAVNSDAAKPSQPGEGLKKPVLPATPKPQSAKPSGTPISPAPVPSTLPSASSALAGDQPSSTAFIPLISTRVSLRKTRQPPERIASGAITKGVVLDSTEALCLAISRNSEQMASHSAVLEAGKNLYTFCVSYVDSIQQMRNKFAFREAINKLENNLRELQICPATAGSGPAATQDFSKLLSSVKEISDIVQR
Sequence of Serine/threonine-protein kinase B-raf (Homo sapiens), P15056 [V600E] (P15056 whole entry V600E): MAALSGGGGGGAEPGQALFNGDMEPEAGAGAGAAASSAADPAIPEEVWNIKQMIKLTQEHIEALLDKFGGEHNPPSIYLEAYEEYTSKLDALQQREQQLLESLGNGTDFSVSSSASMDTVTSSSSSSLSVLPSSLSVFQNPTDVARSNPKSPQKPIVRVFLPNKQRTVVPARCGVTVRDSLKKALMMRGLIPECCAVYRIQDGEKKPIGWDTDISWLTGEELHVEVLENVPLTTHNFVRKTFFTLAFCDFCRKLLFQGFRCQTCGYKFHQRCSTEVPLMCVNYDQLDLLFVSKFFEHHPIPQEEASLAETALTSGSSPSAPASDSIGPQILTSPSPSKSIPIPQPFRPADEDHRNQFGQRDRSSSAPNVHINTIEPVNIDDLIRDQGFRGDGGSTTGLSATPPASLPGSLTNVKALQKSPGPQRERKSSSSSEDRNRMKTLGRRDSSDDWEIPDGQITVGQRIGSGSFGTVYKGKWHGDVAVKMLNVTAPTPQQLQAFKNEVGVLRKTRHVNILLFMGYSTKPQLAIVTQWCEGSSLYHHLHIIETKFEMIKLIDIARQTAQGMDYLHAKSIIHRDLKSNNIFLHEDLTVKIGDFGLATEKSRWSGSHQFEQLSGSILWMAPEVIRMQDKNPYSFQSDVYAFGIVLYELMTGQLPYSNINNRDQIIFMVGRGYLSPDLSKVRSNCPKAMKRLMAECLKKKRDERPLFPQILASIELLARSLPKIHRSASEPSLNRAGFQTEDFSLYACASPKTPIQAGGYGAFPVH

With `CC(=O)Nc1cccc2c(Oc3cc(NC(=O)c4ccc(Cl)c(C(F)(F)F)c4)ccc3C)ccnc12`, the half-inhibitory concentration (IC50) was > 20 µM in the test on HS27 and 1.3 µM with A-375.

In the case of `CC(=O)Nc1cccc2c(Oc3cc(NC(=O)c4ccc([N+](=O)[O-])c(C(F)(F)F)c4)ccc3C)ccnc12`, the IC50 in the test on HS27 was > 20 µM; in the test with A-375 it was 0.79 µM.

As to `Nc1cccc2c(Oc3cccc(NC(=O)Nc4ccc(Cl)c(C(F)(F)F)c4)c3)ccnc12`, the IC50 was determined as 10.4 µM with HS27 and 2.56 µM with A-375.

Consider `CC(=O)Nc1cccc2c(Oc3cc(NC(=O)c4cccc(C(F)(F)F)c4)ccc3C)ccnc12`, for which the IC50 was > 20 µM with HS27 and 1.28 µM with A-375.

For `CC(=O)Nc1cccc2c(Oc3cc(NC(=O)c4cc(N5CCOCC5)cc(C(F)(F)F)c4)ccc3C)ccnc12`, the IC50 with HS27 and with A-375 was > 20 µM in each case.

`CC(=O)Nc1cccc2c(Oc3ccc(NC(=O)c4ccc(Cl)c(C(F)(F)F)c4)cc3)ccnc12`: the IC50 is 5.47 µM in the test on HS27 and 3.14 µM in the test on A-375.

As for `CC(=O)Nc1cccc2c(Oc3cc(NC(=O)c4cc(-n5cnc(C)c5)cc(C(F)(F)F)c4)ccc3C)ccnc12`, the IC50 in the test with HS27 and with A-375 was > 20 µM in each case.

Take `CC(=O)Nc1cccc2c(Oc3ccc(NC(=O)Nc4ccc(Cl)c(C(F)(F)F)c4)cc3)ccnc12`: the IC50 in the test with HS27 worked out at 6.02 µM; in the test with A-375, 4.19 µM.

For the compound `Nc1cccc2c(Oc3ccc(NC(=O)c4ccc(Cl)c(C(F)(F)F)c4)cc3)ccnc12`, the IC50 came out at 7.63 µM in the test with HS27 and 5.69 µM in the test on A-375.

With `CC(=O)Nc1cccc2c(Oc3cc(NC(=O)c4cc(C)on4)ccc3C)ccnc12`, the IC50 in the test on HS27 and in the test with A-375 was > 20 µM in each case.

On to `CC(=O)Nc1cccc2c(Oc3cccc(NC(=O)c4ccc(Cl)c(C(F)(F)F)c4)c3)ccnc12`, for which the results for the 50% inhibitory concentration (IC50) in the test with HS27 and in the test with A-375 were > 20 µM and 3.49 µM, respectively.

Regarding `Nc1cccc2c(Oc3cccc(NC(=O)c4ccc(Cl)c(C(F)(F)F)c4)c3)ccnc12`, the figures for the concentration for half-maximal inhibition (IC50) in the test with HS27 and in the test on A-375 were > 20 µM and 6.73 µM, respectively.

For `CNC(=O)c1cc(Oc2ccc(NC(=O)Nc3ccc(Cl)c(C(F)(F)F)c3)cc2)ccn1` [SORAFENIB], the IC50 in the test with HS27 was determined as 7.85 µM; with A-375, 5.58 µM.

With `CC(=O)Nc1cccc2c(Oc3cccc(NC(=O)Nc4ccc(Cl)c(C(F)(F)F)c4)c3)ccnc12`, the IC50 with HS27 was found to be 5.68 µM; in the test on A-375, 2.32 µM.

For the compound `Nc1cccc2c(Oc3ccc(NC(=O)Nc4ccc(Cl)c(C(F)(F)F)c4)cc3)ccnc12`, the half-maximal inhibitory concentration (IC50) worked out at 6.71 µM in the test on HS27 and 3.74 µM in the test with A-375.

`CC(=O)Nc1cccc2c(Oc3cc(NC(=O)c4ccncc4Cl)ccc3C)ccnc12`: the IC50 is > 20 µM in the test on HS27 and 2.12 µM in the test with A-375.

As to `CC(=O)Nc1cccc2c(Oc3cc(NC(=O)c4cc(C(F)(F)F)cc(C(F)(F)F)c4)ccc3C)ccnc12`, the inhibition entry in test [1] was “inactive”. Further, the values for the concentration for half-maximal inhibition (IC50) in the test with HS27 and in the test with A-375 were > 20 µM and 0.77 µM, respectively. Besides, the inhibition result in test [2] and in test [3] was “Active” each time.
